# Laboratory results from US11008577B1 (priority 2017, dated 2021).
# Where a SMILES comes first, the peptide text is derived from it. Bridges are numbered along the chain shown (N, C = ends). [ ]: non-standard residue; d: D form. The star is where a group is joined. Ileψ(thiazoline)Cys = CC[C@H](C)[C@H](N)C1=N[C@H](C(=O)*)CS1; dOrn = NCCC[C@@H](N)C(=O)O
# Tests used:
# [1] = tested on: high-lipid (HL) mutants; assay: Chemical sensitivity analysis, high-lipid mutants vs parent strain; assay type: cell-based, Rhodobacter sphaeroides; details: all HL mutants; 96-well plates, 30° C., 48 hours, OD 595 nm, normalized to DMSO control and parent strain; conc. per Table 4B
# [2] = tested on: HLM04 and HLM07; assay: Chemical sensitivity analysis, Cluster B strains; assay type: cell-based, Rhodobacter sphaeroides; details: 48 hours, OD 595 nm, conc. per Table 4B
# Protocol: (§1) Selected compounds (Tables 4A and 4B) were tested for their effects on growth of the parent strain to determine the highest doses that cause <30% growth reduction. Parent and high-lipid mutant strains were grown in the presence of the chemicals, or DMSO as a control, in 96-well plates at 30° C. with shaking for 48 hours. Final ODs were read at 595 nm on an Infinite® F500 microplate reader (Tecan). For each strain, final ODs for each drug treatment were first divided by the OD of the DMSO control for that strain to determine relative cell growth, and then the growth value for each treated culture was normalized by the parent strain growth under the same condition.
# [3] = tested on: HLM01, HLM02 and HLM05; assay: Chemical sensitivity analysis, Cluster A strains; assay type: cell-based, Rhodobacter sphaeroides; details: 48 hours, OD 595 nm, conc. per Table 4B
# [4] = tested on: HLM03; details: 48 hours, OD 595 nm, conc. per Table 4B
# Protocol: as §1
compound,measurement,setting,value
"CCCCCCCCCCCCOS(=O)(=O)[O-].[Na+] [SDS, sodium dodecyl sulfate]",growth of the high-lipid mutants compared to the parent strain (relative fitness),[1],many or all of the high-lipid mutants showed increased sensitivity
CC[C@H](C)[C@H](N)C1=N[C@H](C(=O)N[C@@H](CC(C)C)C(=O)N[C@H](CCC(=O)O)C(=O)N[C@H](C(=O)N[C@H]2CCCCNC(=O)[C@H](CC(N)=O)NC(=O)[C@@H](CC(=O)O)NC(=O)[C@H](Cc3cnc[nH]3)NC(=O)[C@@H](Cc3ccccc3)NC(=O)[C@H]([C@@H](C)CC)NC(=O)[C@@H](CCCN)NC2=O)[C@@H](C)CC)CS1 [bacitracin] ({Ileψ(thiazoline)Cys}-L[dE]IK[dOrn]I[dF]H[dD]N; lactam 4-C),"sensitivity compared to the parent strain (relative growth, cluster ** in FIG. 3)",[2],increased sensitivity
CO/N=C(\C(=O)N[C@@H]1C(=O)N2C(C(=O)O)=C(CSc3nc(=O)c(=O)[nH]n3C)CS[C@H]12)c1csc(N)n1 [ceftriaxone],"sensitivity compared to the parent strain (relative growth, cluster ** in FIG. 3)",[2],increased sensitivity
CC[C@H]1OC(=O)[C@H](C)[C@@H](O[C@H]2C[C@@](C)(OC)[C@@H](O)[C@H](C)O2)[C@H](C)[C@@H](O[C@@H]2O[C@H](C)C[C@H](N(C)C)[C@H]2O)[C@](C)(OC)C[C@@H](C)C(=O)[C@H](C)[C@@H](O)[C@]1(C)O [clarithromycin],"sensitivity compared to the parent strain (relative growth, cluster * in FIG. 3)",[3],sensitive
CC[C@H]1OC(=O)[C@H](C)[C@@H](O[C@H]2C[C@@](C)(OC)[C@@H](O)[C@H](C)O2)[C@H](C)[C@@H](O[C@@H]2O[C@H](C)C[C@H](N(C)C)[C@H]2O)[C@](C)(O)C[C@@H](C)C(=O)[C@H](C)[C@@H](O)[C@]1(C)O [erythromycin],"sensitivity compared to the parent strain (relative growth, cluster * in FIG. 3)",[3],sensitive
OO [hydrogen peroxide],sensitivity compared to the parent strain (relative growth),[4],increased sensitivity
CO[C@H]1/C=C/O[C@@]2(C)Oc3c(C)c(O)c4c(O)c(c5c(nc6cc(C)ccn65)c4c3C2=O)NC(=O)/C(C)=C\C=C\[C@H](C)[C@H](O)[C@@H](C)[C@@H](O)[C@@H](C)[C@H](OC(C)=O)[C@@H]1C [rifaximin],"sensitivity compared to the parent strain (relative growth, cluster * in FIG. 3)",[3],sensitive
neomycin,growth of the high-lipid mutants compared to the parent strain (relative fitness),[1],no growth difference
